Source: patent US10703765B2 (priority 2014, dated 2020)
Structures can show the parent of a compound that is named as a salt.

target: human σ1 receptor (Homo sapiens, UniProt Q99720); experiment: biochemical; format: binding; design: μ and σ1 dual binding: key to the marks not given beside the values; details: not given
Sequence (Q99720 whole entry): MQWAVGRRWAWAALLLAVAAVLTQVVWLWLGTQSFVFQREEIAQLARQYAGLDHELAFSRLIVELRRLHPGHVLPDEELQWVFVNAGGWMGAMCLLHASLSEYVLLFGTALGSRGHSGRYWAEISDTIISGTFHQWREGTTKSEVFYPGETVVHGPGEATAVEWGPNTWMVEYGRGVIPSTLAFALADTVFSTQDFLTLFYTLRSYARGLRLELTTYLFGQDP

| Compound | Ki [µM] | μ and σ1 dual binding |
| --- | --- | --- |
| CC1OC2(CCN(CC(O)c3ccccc3)CC2)CN(c2ccccc2)C1=O (mixture of isomers) [Example 150, 9-(2-hydroxy-2-phenylethyl)-2-methyl-4-phenyl-1-oxa-4,9-diazaspiro[5.5]undecan-3-one] | > 0.5 | – |
| COc1ccc(N2CC3(CCN(CCc4ccccc4)CC3)OC(C)C2=O)cc1.Cl (stereo not shown) [Example 1, 4-(4-methoxyphenyl)-2-methyl-9-phenethyl-1-oxa-4,9-diazaspiro[5.5]undecan-3-one hydrochloride] | – | ++ |
| Cl.O=C1COC2(CCN(Cc3ccccc3)CC2)CN1c1ccccc1 [Example 3, 9-benzyl-4-phenyl-1-oxa-4,9-diazaspiro[5.5]undecan-3-one hydrochloride] | – | ++ |
| CC1OC2(CCN(Cc3ccccc3)CC2)CN(c2ccccc2)C1=O.Cl (stereo not shown) [Example 16, 9-benzyl-2-methyl-4-phenyl-1-oxa-4,9-diazaspiro[5.5]undecan-3-one hydrochloride] | – | ++ |
| CC1OC2(CCN(CCc3ccccc3)CC2)CN(c2ccn(C)n2)C1=O.Cl (stereo not shown) [Example 20, 2-methyl-4-(1-methyl-1H-pyrazol-3-yl)-9-phenethyl-1-oxa-4,9-diazaspiro[5.5]undecan-3-one hydrochloride] | – | ++ |
| CC1OC2(CCN(CCc3cc(C(F)(F)F)ccn3)CC2)CN(c2ccccc2)C1=O (stereo not shown) [Example 28, 2-methyl-4-phenyl-9-(2-(4-(trifluoromethyl)pyridin-2-yl)ethyl)-1-oxa-4,9-diazaspiro[5.5]undecan-3-one hydrochloride] | < 0.1 | – |
| CC1OC2(CCN(CCc3cccc(N)n3)CC2)CN(c2ccccc2)C1=O (stereo not shown) [Example 29, 9-(2-(6-aminopyridin-2-yl)ethyl)-2-methyl-4-phenyl-1-oxa-4,9-diazaspiro[5.5]undecan-3-one] | < 0.5 | – |
| CC1OC2(CCN(CCc3cccc(C(F)(F)F)n3)CC2)CN(c2ccccc2F)C1=O (stereo not shown) [Example 31, 4-(2-fluorophenyl)-2-methyl-9-(2-(6-(trifluoromethyl)pyridin-2-yl)ethyl)-1-oxa-4,9-diazaspiro[5.5]undecan-3-one hydrochloride] | < 0.5 | – |
| CC1OC2(CCN(CCc3ncccc3C(F)(F)F)CC2)CN(c2ccccc2)C1=O (stereo not shown) [Example 33, 2-methyl-4-phenyl-9-(2-(3-(trifluoromethyl)pyridin-2-yl)ethyl)-1-oxa-4,9-diazaspiro[5.5]undecan-3-one hydrochloride] | < 0.5 | – |
| CC1OC2(CCN(CCc3ncccc3Cl)CC2)CN(c2ccccc2)C1=O (stereo not shown) [Example 37, 9-(2-(3-chloropyridin-2-yl)ethyl)-2-methyl-4-phenyl-1-oxa-4,9-diazaspiro[5.5]undecan-3-one hydrochloride] | < 0.5 | – |

same assay, conditions: combined class from Ki-σ1 (human σ1 receptor, A1) and Ki-μ (human μ-opioid receptor, A2) radioligand binding

| Compound | μ and σ1 dual binding |
| --- | --- |
| COc1ccccc1N1CC2(CCN(Cc3ccccc3)CC2)OCC1=O [Example 2, 9-benzyl-4-(2-methoxyphenyl)-1-oxa-4,9-diazaspiro[5.5]undecan-3-one] | ++ |
| COc1ccccc1N1CC2(CCN(CCc3ccccc3)CC2)OCC1=O [Example 4, 4-(2-methoxyphenyl)-9-phenethyl-1-oxa-4,9-diazaspiro[5.5]undecan-3-one] | ++ |
| COc1cccc(N2CC3(CCN(Cc4ccccc4)CC3)OCC2=O)c1 [Example 6, 9-benzyl-4-(3-methoxyphenyl)-1-oxa-4,9-diazaspiro[5.5]undecan-3-one] | ++ |
| O=C1COC2(CCN(Cc3ccccc3)C2)CN1c1ccccc1 (stereo not shown) [Example 7, 2-benzyl-9-phenyl-6-oxa-2,9-diazaspiro[4.5]decan-8-one] | ++ |
| COc1cccc(N2CC3(CCN(CCc4ccccc4)CC3)OCC2=O)c1 [Example 8, 4-(3-methoxyphenyl)-9-phenethyl-1-oxa-4,9-diazaspiro[5.5]undecan-3-one] | ++ |
| CC1OC2(CCN(CCc3ccnc(N)c3)CC2)CN(c2ccccc2)C1=O (stereo not shown) [Example 32, 9-(2-(2-aminopyridin-4-yl)ethyl)-2-methyl-4-phenyl-1-oxa-4,9-diazaspiro[5.5]undecan-3-one] | ++ |
| COc1ccnc(CCN2CCC3(CC2)CN(c2ccccc2)C(=O)C(C)O3)c1 (stereo not shown) [Example 35, 9-(2-(4-methoxypyridin-2-yl)ethyl)-2-methyl-4-phenyl-1-oxa-4,9-diazaspiro[5.5]undecan-3-one] | ++ |

same assay, conditions: read-out: μ and σ1 dual binding

| Compound | Ki [µM] |
| --- | --- |
| O=C1COC2(CCN(CCc3ccccc3)CC2)CN1c1ccccc1 [Example 5, 9-phenethyl-4-phenyl-1-oxa-4,9-diazaspiro[5.5]undecan-3-one] | < 0.5 |
| CC1OC2(CCN(CCc3ccccc3)CC2)CN(c2ccccc2)C1=O (stereo not shown) [Example 9, 2-methyl-9-phenethyl-4-phenyl-1-oxa-4,9-diazaspiro[5.5]undecan-3-one] | < 0.1 |
| C[C@H]1OC2(CCN(CCc3ccccc3)CC2)CN(c2ccccc2)C1=O [Example 10a, (R)-2-methyl-9-phenethyl-4-phenyl-1-oxa-4,9-diazaspiro[5.5]undecan-3-one] | < 0.1 |
| C[C@@H]1OC2(CCN(CCc3ccccc3)CC2)CN(c2ccccc2)C1=O [Example 10b, (S)-2-methyl-9-phenethyl-4-phenyl-1-oxa-4,9-diazaspiro[5.5]undecan-3-one] | < 0.1 |
| COCC1OC2(CCN(CCc3ccccc3)CC2)CN(c2ccccc2)C1=O (stereo not shown) [Example 11, 2-(methoxymethyl)-9-phenethyl-4-phenyl-1-oxa-4,9-diazaspiro[5.5]undecan-3-one] | < 0.1 |
| COC[C@@H]1OC2(CCN(CCc3ccccc3)CC2)CN(c2ccccc2)C1=O [Example 12a, (S)-2-(methoxymethyl)-9-phenethyl-4-phenyl-1-oxa-4,9-diazaspiro[5.5]undecan-3-one] | < 0.5 |
| COC[C@H]1OC2(CCN(CCc3ccccc3)CC2)CN(c2ccccc2)C1=O [Example 12b, (R)-2-(methoxymethyl)-9-phenethyl-4-phenyl-1-oxa-4,9-diazaspiro[5.5]undecan-3-one] | < 0.1 |
| CCC1OC2(CCN(CCc3ccccc3)CC2)CN(c2ccccc2)C1=O (stereo not shown) [Example 13, 2-ethyl-9-phenethyl-4-phenyl-1-oxa-4,9-diazaspiro[5.5]undecan-3-one] | < 0.1 |
| COC(=O)CC1OC2(CCN(CCc3ccccc3)CC2)CN(c2ccccc2)C1=O (stereo not shown) [Example 14, methyl 2-(3-oxo-9-phenethyl-4-phenyl-1-oxa-4,9-diazaspiro[5.5]undecan-2-yl)acetate hydrochloride] | < 0.1 |
| COc1cccc(N2CC3(CCN(CCc4ccccc4)CC3)OC(C)C2=O)c1 (stereo not shown) [Example 15, 4-(3-methoxyphenyl)-2-methyl-9-phenethyl-1-oxa-4,9-diazaspiro[5.5]undecan-3-one hydrochloride] | < 0.5 |
| CC(C)C1OC2(CCN(CCc3ccccc3)CC2)CN(c2ccccc2)C1=O (stereo not shown) [Example 17, 2-isopropyl-9-phenethyl-4-phenyl-1-oxa-4,9-diazaspiro[5.5]undecan-3-one hydrochloride] | < 0.1 |
| CC1(C)OC2(CCN(CCc3ccccc3)CC2)CN(c2ccccc2)C1=O [Example 18, 2,2-dimethyl-9-phenethyl-4-phenyl-1-oxa-4,9-diazaspiro[5.5]undecan-3-one] | < 0.1 |
| O=C1C(COCc2ccccc2)OC2(CCN(CCc3ccccc3)CC2)CN1c1ccccc1 (stereo not shown) [Example 19, 2-((benzyloxy)methyl)-9-phenethyl-4-phenyl-1-oxa-4,9-diazaspiro[5.5]undecan-3-one hydrochloride] | < 0.1 |
| C=C1OC2(CCN(CCc3ccccc3)CC2)CN(c2ccccc2)C1=O [Example 21, 2-methylene-9-phenethyl-4-phenyl-1-oxa-4,9-diazaspiro[5.5]undecan-3-one] | > 0.5 |
| C=C1OC2(CCN(CCc3ccccc3)CC2)CN(c2ccccc2F)C1=O [Example 22, 4-(2-fluorophenyl)-2-methylene-9-phenethyl-1-oxa-4,9-diazaspiro[5.5]undecan-3-one] | > 0.5 |
| CC1OC2(CCN(CCc3ccc([N+](=O)[O-])cn3)CC2)CN(c2ccccc2)C1=O (stereo not shown) [Example 23, 2-methyl-9-(2-(5-nitropyridin-2-yl)ethyl)-4-phenyl-1-oxa-4,9-diazaspiro[5.5]undecan-3-one] | > 0.5 |
| CC1OC2(CCN(CCc3ccc([N+](=O)[O-])cn3)CC2)CN(c2ccccc2F)C1=O (stereo not shown) [Example 24, 4-(2-fluorophenyl)-2-methyl-9-(2-(5-nitropyridin-2-yl)ethyl)-1-oxa-4,9-diazaspiro[5.5]undecan-3-one] | > 0.5 |
| CC1OC2(CCN(CCc3ncccc3[N+](=O)[O-])CC2)CN(c2ccccc2F)C1=O (stereo not shown) [Example 25, 4-(2-fluorophenyl)-2-methyl-9-(2-(3-nitropyridin-2-yl)ethyl)-1-oxa-4,9-diazaspiro[5.5]undecan-3-one] | > 0.5 |
| CC1OC2(CCN(CCc3ncccn3)CC2)CN(c2ccccc2)C1=O (stereo not shown) [Example 26, 2-methyl-4-phenyl-9-(2-(pyrimidin-2-yl)ethyl)-1-oxa-4,9-diazaspiro[5.5]undecan-3-one hydrochloride] | > 0.5 |
| CC1OC2(CCN(CCc3cccnc3[N+](=O)[O-])CC2)CN(c2ccccc2)C1=O (stereo not shown) [Example 27, 2-methyl-9-(2-(2-nitropyridin-3-yl)ethyl)-4-phenyl-1-oxa-4,9-diazaspiro[5.5]undecan-3-one] | > 0.5 |
| CC1OC2(CCN(CCc3cc(N)ccn3)CC2)CN(c2ccccc2)C1=O (stereo not shown) [Example 30, 9-(2-(4-aminopyridin-2-yl)ethyl)-2-methyl-4-phenyl-1-oxa-4,9-diazaspiro[5.5]undecan-3-one hydrochloride] | > 0.5 |
| CC1OC2(CCN(CCc3ccc(C(F)(F)F)cn3)CC2)CN(c2ccccc2)C1=O (stereo not shown) [Example 34, 2-methyl-4-phenyl-9-(2-(5-(trifluoromethyl)pyridin-2-yl)ethyl)-1-oxa-4,9-diazaspiro[5.5]undecan-3-one hydrochloride] | > 0.5 |
| CC1OC2(CCN(CCc3ccc(C#N)cn3)CC2)CN(c2ccccc2)C1=O (stereo not shown) [Example 36, 6-(2-(2-methyl-3-oxo-4-phenyl-1-oxa-4,9-diazaspiro[5.5]undecan-9-yl)ethyl)nicotinonitrile hydrochloride] | > 0.5 |
